Results as given in ChEMBL document CHEMBL1201862, “PubChem BioAssay data set” (2004).
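1) Cells in 96-well plates. 2) Compound, 48 h, 5 concentrations. 3) Linear interpolation between surrounding doses. 4) Unreached endpoint = highest concentration. GI50 marks 50% less growth.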 Activity calls are given as the source filed them. No stated cut-off is given here; in the data, active = GI50 up to about 1.1 µM and inactive = higher.

What was measured:
Test in all cases: NCI-60 cell line screen, 48 h
[1] = system: RXF 393
[2] = system: SK-MEL-2
[3] = system: OVCAR-4
[4] = system: A498
[5] = system: TK-10
[6] = system: HOP-62
[7] = system: HCC 2998
[8] = system: MOLT-4
[9] = system: SF-268
[10] = system: ACHN
[11] = system: CCRF-CEM
[12] = system: CAKI-1
[13] = system: OVCAR-5
[14] = system: COLO 205
[15] = system: M14
[16] = system: IGROV-1
[17] = system: Malme-3M
[18] = system: HCT-116
[19] = system: SR

Measured: GI50

O=C1CCC2(c3ccccc3)Nc3cc(Cl)ccc3N12 (stereo not drawn)
inactive: [1] 28.4 µM | [2] 22.2 µM | [3] 35.2 µM | [4] 35.4 µM | [5] 39.2 µM | [6] 25.4 µM | [7] 42.1 µM | [8] 21.6 µM | [9] 40.8 µM | [10] 26.9 µM | [11] 25.1 µM | [12] 21 µM | [13] 58.9 µM | [14] 17.7 µM | [15] 30.1 µM | [16] 41.2 µM | [17] 25.8 µM

O=C1C=C/C(=N\c2ccc3c(c2)C(Br)c2ccccc2-3)O1 (stereo not drawn)
inactive: [1] > 100 µM | [18] > 100 µM | [5] > 100 µM | [19] 20.2 µM | [6] > 100 µM | [7] > 100 µM | [8] 26.8 µM | [9] > 100 µM | [10] > 100 µM | [11] 26.8 µM | [14] > 100 µM | [15] > 100 µM | [16] > 100 µM | [17] > 100 µM

CCOC(=O)C1C(=O)CC(=O)C2CCCCC21 (stereo not drawn)
inactive: [1] > 100 µM | [2] > 100 µM | [18] > 100 µM | [3] > 100 µM | [4] > 100 µM | [5] > 100 µM | [6] > 100 µM | [8] > 100 µM | [9] > 100 µM | [10] > 100 µM | [11] > 100 µM | [12] > 100 µM | [13] > 100 µM | [14] > 100 µM | [15] > 100 µM | [16] > 100 µM | [17] > 100 µM

NCP(=O)(O)OCC(=O)O
inactive: [1] > 100 µM | [2] > 100 µM | [18] > 100 µM | [3] > 100 µM | [4] > 100 µM | [5] > 100 µM | [19] > 100 µM | [6] > 100 µM | [8] > 100 µM | [9] > 100 µM | [10] > 100 µM | [11] > 100 µM | [12] > 100 µM | [13] > 100 µM | [14] > 100 µM | [15] > 100 µM | [16] > 100 µM | [17] > 100 µM

COc1ccc(/C=C2\CNC/C(=C\c3ccc(OC)cc3)C2=O)cc1
inactive: [1] 21 µM | [2] > 100 µM | [18] 3.24 µM | [3] 76.9 µM | [5] > 100 µM | [19] 24.8 µM | [6] > 100 µM | [7] 35.3 µM | [8] 15.8 µM | [9] 24.1 µM | [10] > 100 µM | [11] 12.4 µM | [12] 14.1 µM | [13] > 100 µM | [14] 49.4 µM | [15] > 100 µM | [16] 48.2 µM | [17] > 100 µM

ON/N=C/c1cc2c(cc1Br)OCO2
inactive: [1] 114 µM | [2] > 386 µM | [18] > 386 µM | [5] > 386 µM | [19] > 386 µM | [6] > 386 µM | [7] > 386 µM | [8] 383 µM | [9] 247 µM | [10] > 386 µM | [11] > 386 µM | [12] > 386 µM | [13] 164 µM | [14] > 386 µM | [16] > 386 µM | [17] > 386 µM

CCCC(=O)c1ccc2c(ccc(=O)n2C)c1
inactive: [2] > 100 µM | [18] > 100 µM | [3] 66.7 µM | [4] 83 µM | [5] > 100 µM | [6] > 100 µM | [7] > 100 µM | [8] > 100 µM | [9] > 100 µM | [11] > 100 µM | [12] 52.7 µM | [13] > 100 µM | [14] > 100 µM | [15] > 100 µM | [16] > 100 µM | [17] > 100 µM

CC(C)(C)C1CCC2c3c([nH]c4ccccc34)C3C(=O)N(c4ccccc4)C(=O)C3C2C1 (stereo not drawn)
inactive: [1] 3.81 µM | [3] 1.86 µM | [4] 2.5 µM | [5] 3.71 µM | [19] 6.27 µM | [7] 9.53 µM | [8] 3.31 µM | [9] 13.6 µM | [10] 4.94 µM | [11] 2.77 µM | [13] > 100 µM | [14] 4.35 µM | [15] 4.43 µM | [16] 11.1 µM | [17] 2.4 µM

O=C(N/C(=C\c1c(O)ccc2ccccc12)c1nc2ccccc2[nH]1)c1ccccc1
inactive: [1] 22.1 µM | [2] > 100 µM | [18] > 100 µM | [3] > 100 µM | [4] 38.2 µM | [5] > 100 µM | [6] 25.9 µM | [7] > 100 µM | [8] > 100 µM | [9] 64.3 µM | [10] > 100 µM | [11] > 100 µM | [12] > 100 µM | [13] > 100 µM | [14] > 100 µM | [15] > 100 µM | [16] > 100 µM | [17] > 100 µM

C/C(CC(=O)Nc1cccc(Cl)c1C)=N\N=C(N)N
inactive: [1] > 100 µM | [2] > 100 µM | [18] > 100 µM | [3] > 100 µM | [4] > 100 µM | [5] > 100 µM | [6] > 100 µM | [7] > 100 µM | [8] > 100 µM | [9] > 100 µM | [10] > 100 µM | [11] > 100 µM | [12] > 100 µM | [13] > 100 µM | [14] > 100 µM | [15] > 100 µM | [16] > 100 µM | [17] > 100 µM

COc1ccccc1/C=C1\C(=O)N(C(=O)c2ccc(NC(C)=O)cc2)N=C1C
inactive: [2] > 100 µM | [18] > 100 µM | [3] > 100 µM | [5] > 100 µM | [19] > 100 µM | [6] > 100 µM | [7] > 100 µM | [8] > 100 µM | [9] > 100 µM | [10] > 100 µM | [11] > 100 µM | [12] > 100 µM | [13] > 100 µM | [14] > 100 µM | [17] > 100 µM

CC12CC3CC(C)(C1)CC(N=[N+]=[N-])(C3)C2
inactive: [2] > 100 µM | [18] > 100 µM | [3] > 100 µM | [4] > 100 µM | [5] > 100 µM | [19] > 100 µM | [6] > 100 µM | [7] > 100 µM | [8] > 100 µM | [9] > 100 µM | [10] > 100 µM | [11] > 100 µM | [12] > 100 µM | [13] > 100 µM | [14] > 100 µM | [15] > 100 µM | [16] > 100 µM | [17] > 100 µM

CC(C)(C)c1cc(CCCCCCCC2(CCCCCCCc3cc(C(C)(C)C)cc(C(C)(C)C)c3)OC(COCCOCCCCCC#N)C(COCCOCCCCCC#N)O2)cc(C(C)(C)C)c1 (stereo not drawn)
inactive: [1] 3.78 µM | [2] > 100 µM | [18] > 100 µM | [3] > 100 µM | [4] > 100 µM | [5] > 100 µM | [6] > 100 µM | [7] > 100 µM | [9] > 100 µM | [10] > 100 µM | [11] > 100 µM | [12] > 100 µM | [13] > 100 µM | [14] > 100 µM | [15] > 100 µM | [16] > 100 µM | [17] > 100 µM

O=c1oc2cc(O)ccc2c2[nH]c3cc(O)ccc3c12
inactive: [1] 20.6 µM | [2] 19.1 µM | [18] 17.4 µM | [3] 37.4 µM | [4] 36.1 µM | [5] 36.3 µM | [19] 21.2 µM | [6] 24.3 µM | [7] 22.5 µM | [8] 34 µM | [9] 22.8 µM | [10] 22.7 µM | [11] 30.8 µM | [14] 23.9 µM | [15] 36.4 µM | [16] 23.1 µM | [17] 32.6 µM

C#CC1(O)CCC2[C@@H]3CCc4cc(Oc5nc(F)nc(-c6c7ccccc7c(SCC)n6CCC)n5)ccc4C3CC[C@@]21C (stereo partly drawn)
inactive: [1] 21.6 µM | [2] 19.9 µM | [18] 29.2 µM | [3] > 100 µM | [4] > 100 µM | [5] > 100 µM | [19] 34.7 µM | [6] > 100 µM | [7] > 100 µM | [8] 28.7 µM | [9] 57.5 µM | [10] > 100 µM | [11] 39.4 µM | [13] > 100 µM | [14] > 100 µM | [15] 40.5 µM | [16] 94.6 µM | [17] > 100 µM

COc1cc(OC)c2c(=O)cc(-c3ccc(OC)c(OC)c3OC)oc2c1
inactive: [1] 57.5 µM | [2] 60.1 µM | [18] > 100 µM | [3] 54.3 µM | [5] > 100 µM | [6] 27.7 µM | [7] > 100 µM | [9] 48.2 µM | [10] 83.6 µM | [11] > 10 µM | [12] > 100 µM | [13] > 100 µM | [14] > 100 µM | [15] > 100 µM | [16] > 100 µM | [17] > 100 µM
